Assay [1] concerns rat cerebral cortical neurons. Description: Glutamate toxicity assay in primary cortical cultures. Type of assay: cell-based. From the text: (§1) Dissociated hippocampal and cortical cell cultures were established from embryonic day 18 rat fetuses as previously described (Mattson et al., 1994). Briefly, fetuses were removed via cesarean section from pregnant moms (Sprague-Dawley) anesthetized with halothane according to the AVMA Panel on Euthanasia. Pups were decapitated and the brains were removed and placed in HEPES-buffered Hank's Balanced Salt solution (HBSS; Gibco). The hippocampi and cortices were dissected out and pooled according to tissue-type. Tissue was trypsinized for 15 min (1 mg/ml trypsin-HBSS; Worthington), rinsed with fresh HBSS, incubated in trypsin inhibitor (1 mg/ml; Sigma) for 5 min, rinsed again with fresh HBSS and then triturated in 1 ml fresh HBSS with a fire-polished glass pipette. Dissociated cells were seeded at 30,000 cells/well onto poly-D-lysine coated 96-well plates (Collaborative BioScience). Each well contained 100 μl of Eagle's Minimal Essential Media (MEM; Gibco) supplemented with 26 mM NaHCO3 (Sigma), 56 mM glucose (Sigma), 15 mM KCl (Sigma), 1 mM sodium pyruvate (Sigma), 1.1 mM L-glutamine (Sigma), 10% (v/v) heat-inactivated fetal bovine serum (Hyclone), and 0.001% gentamicin sulfate (Sigma) (pH 7.4). Cells were allowed to attach for 24 h in a humidified 37° C. 5% CO2 incubator before experimental treatment. The culture media was aspirated and exchanged with fresh media every three days.
Cortical cells were seeded at 200,000 cells/dish onto polyethylenimine-coated 35 mm culture dishes. Each dish contained 1.5 ml MEM supplemented as described above. On the seventh day in culture, four fields per pre-marked dish were visualized with a Nikon Diaphot inverted microscope (10×magnification) and photographed prior to experimental treatment. […] Cell survival was measured by counting viable cells in each field pre- and post-experimental treatment. […] Data were expressed as percent of control (vehicle; mean±SD).

Another assay has as its system PC-12 cells. Put plainly: Glutamate toxicity in PC-12 cells (trypan blue exclusion). Type of assay: cell-based, rat. The conditions noted are these: for protection against glutamate-induced cell death (in words): pre-treatment 24 hr, 200 μM glutamate. On the procedure: PC-12 cells (from a rat Pheochromocytoma) were cultured on poly-D-Lysine coated tissue culture plastic in DMEM containing 10% FBS and 5% Horse serum. To induce the neuronal phenotype in PC-12 cells, serum was removed and the cells were treated with NGF (50 ng/ml). Cells were grown for 7 days in the presence of the NGF then used for experiments. PC-12 cells were cultured as described above. 24 hr prior to insult, cells were treated with rhEPO at concentrations ranging from 1 pm to 1 nm. On the day of the experiment, cells were exposed to 200 μM glutamate for 30 min. Cells were then washed 2 times with fresh media to remove the glutamate and cultured in fresh media containing NGF but no EPO. After 24 hr cells were assayed for viability using a trypan blue exclusion assay. […] Cells were then washed gently with PBS, then fixed with 10% formalin. Cell viability was determined by counting the total number of cells vs. the number of trypan blue positive (dead) cells.

Another assay has as its system rat hippocampal cultures. Description: Neurite outgrowth assay (MAP2-FITC immunofluorescence), hippocampal cultures. Type of assay: cell-based.
Source text: as §1
Twenty-four hours after plating, cultures were treated with vehicle (PBS+0.1% BSA), 100 ng of various growth factors (brain derived neurotrophic factor (BDNF; Promega), glial-derived neurotrophic factor (GDNF; Promega), nerve growth factor (NGF; Boehringer Mannheim), basic fibroblast growth factor (bFGF; Boehringer Mannheim), insulin-like growth factor-1 (IGF-1; Boehringer Mannheim), neurotrophin-3 (NT3; Calbiochem), neurotrophin-4 (NT4; Calbiochem), ciliary neurotrophic factor (CNTF; Calbiochem), epidermal growth factor (EGF; Calbiochem), vascular endothelial growth factor (VEGF; Calbiochem)), or rhEPO (prepared same as above; 10 fM-10 nM)). Each treatment condition was run in quadruplicate or octuplicate. On the third day in culture, the media was aspirated off and replaced with fresh media and test compound. At one week in culture, the cells were fixed with 10% phosphate-buffered formalin for 15 min, then rinsed with DPBS (Sigma) and placed in blocking serum for 30 min (horse serum; 1:50 dilution in DPBS; Vector Labs). Cultures were rinsed again with DPBS and then incubated in primary antibody for 2 hr (microtubule-associated protein-2 (MAP-2) is a selective marker for dendritic processes; anti-mouse monoclonal (Chemicon); 1:1000 dilution of MAP-2 in antibody diluent (Zymed)). Negative control wells were incubated in antibody diluent alone. Background signal was determined by blank wells (cell-free) incubated with or without antibody. Cultures were rinsed again with DPBS and then placed in fluorescein for 1 hr (FITC; anti-mouse IgG; rat adsorbed; 1:50 dilution in DPBS; Vector Labs). Cultures were rinsed a final time with DPBS and then the plates were read on a Cytofluor 4000 fluorescence plate reader. Neurite outgrowth was expressed as percent change from control (vehicle; mean fluorescence±SD).
Dissociated hippocampal and cortical cell cultures were established from embryonic day 18 rat fetuses as previously described (Mattson et al., 1994). Briefly, fetuses were removed via cesarean section from pregnant moms (Sprague-Dawley) anesthetized with halothane according to the AVMA Panel on Euthanasia. Pups were decapitated and the brains were removed and placed in HEPES-buffered Hank's Balanced Salt solution (HBSS; Gibco). The hippocampi and cortices were dissected out and pooled according to tissue-type. […]

“Also recorded” adds a separate entry of the source.

On to “EPO: purified, recombinant human EPO (rhEPO), formulated and distributed under the trademarks EPREX, ERYPO or PROCRIT”, for which the “concentration of greatest neuroprotective effect” value in assay [1] (cell survival greater than or equal to vehicle (no glutamate) treated cultures) is listed as “greatest effects observed at pM concentrations”. Further, the “neuronal survival / protection against glutamate toxicity (in words)” value in assay [1] (pretreatment 24 h prior to 100 μM glutamate) is “significant increase in neuronal survival; also recorded: protects rat cerebral cortical neurons against glutamate toxicity”. Moreover, the “cell survival, maximal increase over parallel cultures treated with glutamate alone” value in assay [1] (pretreatment 24 h prior to 100 μM glutamate, counted 24 h post-glutamate) is “approximately 200%”. For the same substance, the “cell survival, Trypan Blue exclusion assay” value with PC-12 cells (1 to 10 pm given 24 hours prior to glutamate (200 um), p<0.001) is “significantly increased cell survival”. In the assay on PC-12 cells (glutamate toxicity), the “peak concentration for the neuroprotective effect” value came out at 10 pm. The “neuroprotective effect at 1 nm” value in the assay with PC-12 cells (glutamate toxicity, 1 nm) is given as “no significant effect”. In addition, the “dose response curve for the neuroprotective effect” value in the assay on PC-12 cells (glutamate toxicity, protection decreasing above 10 pm) is given as “bi-phasic; also recorded: decreased at higher doses”. The results for the “protection against glutamate-induced cell death (in words)” value in the assay with PC-12 cells and in the assay with PC-12 cells (listed as rhEPO) were “significant decrease in cell death” and “protects rat PC12 cells against glutamate-induced cell death”, respectively. In the assay on rat hippocampal cultures (comparison of hippocampal and cortical cultures), the “overall neurite outgrowth response, hippocampal versus cortical cultures” value is given as “larger outgrowth response in the hippocampal cultures”. Further, the “neurite outgrowth (in words)” value in the assay with rat hippocampal cultures (hippocampal cultures) is “significant increase in neurite outgrowth; also recorded: promotes neurite outgrowth”. Moreover, the “concentration of maximal neurite outgrowth promoting activity” value in the assay on rat hippocampal cultures (hippocampal cultures, concentration dependent) is on record as “maximal activity observed at pM levels”. Moreover, the “neurite outgrowth response over control” value in the assay with rat hippocampal cultures (hippocampal cultures, rhEPO 10 fM-10 nM, one week in culture) is 12–44%. The “outgrowth promoting activity compared to known growth factors” value with rat hippocampal cultures (hippocampal cultures, growth factors 100 ng) is “superior to several growth factors including BDNF, NGF and VEGF”.

For the origin of these results see US7259146B2, “Neuroprotective peptides” (Ortho-McNeil Pharmaceutical, Inc., priority 2000, dated 2007).
